From ChEMBL document CHEMBL1201862, “PubChem BioAssay data set” (2004)
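A five-concentration, 48-hour dose response in 96-well plates underlies each endpoint, interpolated linearly between surrounding concentrations. Abbreviation: GI50, concentration required for 50% inhibition of growth.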 Active and inactive are the calls of the source. Cut-off read from the data, not from the text of the source: active = GI50 up to about 1.1 µM and inactive = higher.

Experiments:
Experiment in all cases: DTP human tumour cell line panel, 48 h
[1] = test system: A498
[2] = test system: CCRF-CEM
[3] = test system: NCI-H460
[4] = test system: SK-MEL-28
[5] = test system: MOLT-4
[6] = test system: KM12
[7] = test system: T47D
[8] = test system: MDA-N
[9] = test system: SK-MEL-2
[10] = test system: U-251
[11] = test system: UACC-62
[12] = test system: RXF 393
[13] = test system: Hs-578T
[14] = test system: OVCAR-4
[15] = test system: EKVX
[16] = test system: SK-MEL-5
[17] = test system: NCI/ADR-RES
[18] = test system: SK-OV-3
[19] = test system: M14
[20] = test system: HCC 2998

Compound	GI50 [1]	GI50 [2]	GI50 [3]	GI50 [4]	GI50 [5]	GI50 [6]	GI50 [7]	GI50 [8]	GI50 [9]	GI50 [10]	GI50 [11]	GI50 [12]	GI50 [13]	GI50 [14]	GI50 [15]	GI50 [16]	GI50 [17]	GI50 [18]	GI50 [19]	GI50 [20]
CSc1c(CC(=O)O)n(Cc2ccccc2)c2ccccc12	> 100 µM (inactive)	84.7 µM (inactive)	60.8 µM (inactive)	> 100 µM (inactive)	> 100 µM (inactive)	> 100 µM (inactive)	91.6 µM (inactive)	> 100 µM (inactive)	> 100 µM (inactive)	> 100 µM (inactive)	81.3 µM (inactive)	> 100 µM (inactive)	> 100 µM (inactive)	61.7 µM (inactive)	74.5 µM (inactive)	> 100 µM (inactive)	> 100 µM (inactive)	> 100 µM (inactive)	> 100 µM (inactive)	–
O=C(C/N=C(\CN(c1ccccc1)c1ccccc1)Oc1c(Cl)cc(Cl)cc1Cl)N1c2ccccc2Sc2ccccc21	–	41.8 µM (inactive)	56.4 µM (inactive)	> 100 µM (inactive)	30.6 µM (inactive)	38.1 µM (inactive)	31.9 µM (inactive)	51.1 µM (inactive)	–	53.5 µM (inactive)	4.61 µM (inactive)	0.101 µM (active)	50.9 µM (inactive)	88.7 µM (inactive)	> 100 µM (inactive)	21.4 µM (inactive)	57.9 µM (inactive)	29.6 µM (inactive)	30.5 µM (inactive)	36.7 µM (inactive)
COc1ccc(C2OC2C(=O)C23CC4CC(CC(C4)C2)C3)cc1 (stereo unspecified)	> 100 µM (inactive)	60.7 µM (inactive)	44.8 µM (inactive)	> 100 µM (inactive)	47.1 µM (inactive)	96.8 µM (inactive)	14.4 µM (inactive)	37.8 µM (inactive)	–	36.1 µM (inactive)	10.4 µM (inactive)	37.6 µM (inactive)	13.6 µM (inactive)	> 100 µM (inactive)	> 100 µM (inactive)	77.8 µM (inactive)	> 100 µM (inactive)	–	> 100 µM (inactive)	31 µM (inactive)
C=C1C(=O)O[C@H]2C1C[C@@H](OC(C)=O)/C(C)=C/CC[C@@]1(C)O[C@H]21 (stereo partly specified)	–	1.77 µM (inactive)	33.3 µM (inactive)	10.7 µM (inactive)	2 µM (inactive)	21.8 µM (inactive)	7.1 µM (inactive)	2.93 µM (inactive)	21.8 µM (inactive)	70.1 µM (inactive)	3.05 µM (inactive)	6.53 µM (inactive)	26.1 µM (inactive)	13 µM (inactive)	17.2 µM (inactive)	5.53 µM (inactive)	11 µM (inactive)	26.9 µM (inactive)	0.687 µM (active)	13 µM (inactive)
Cc1cc(C)nc(NS(=O)(=O)c2ccc(Nc3nncc(=O)n3N)cc2)n1	45.9 µM (inactive)	3.62 µM (inactive)	30.1 µM (inactive)	26.5 µM (inactive)	15.5 µM (inactive)	36.2 µM (inactive)	16.3 µM (inactive)	16 µM (inactive)	59 µM (inactive)	17.7 µM (inactive)	19.8 µM (inactive)	–	29.6 µM (inactive)	18.1 µM (inactive)	23.1 µM (inactive)	17 µM (inactive)	23.6 µM (inactive)	55.7 µM (inactive)	34.8 µM (inactive)	30.5 µM (inactive)
CC1OC2OC3C(OCC(O)C3O)OC(=O)[C@]34CCC(C)(C)CC3C3=CCC5[C@@]6(C)C[C@H](O)[C@H](OC7OC(CO)C(O)C(O)C7OC7OC(COC(=O)CC(C)(O)CC(=O)OC1C(O)C2O)C(O)C(O)C7O)[C@@](C)(CO)C6CC[C@@]5(C)[C@]3(C)CC4 (stereo partly specified)	–	1.51 µM (inactive)	1.8 µM (inactive)	1.5 µM (inactive)	1.32 µM (inactive)	1.48 µM (inactive)	2.39 µM (inactive)	1.52 µM (inactive)	1.59 µM (inactive)	1.57 µM (inactive)	1.56 µM (inactive)	–	1.79 µM (inactive)	1.51 µM (inactive)	–	1.21 µM (inactive)	3.01 µM (inactive)	1.56 µM (inactive)	1.43 µM (inactive)	1.32 µM (inactive)
COc1cc(C(c2cccc3ccccc23)N2C(=O)CCC2C(=O)O)cc(OC)c1OC (stereo unspecified)	> 100 µM (inactive)	> 100 µM (inactive)	> 100 µM (inactive)	> 100 µM (inactive)	> 100 µM (inactive)	> 100 µM (inactive)	> 100 µM (inactive)	> 100 µM (inactive)	> 100 µM (inactive)	> 100 µM (inactive)	> 100 µM (inactive)	> 100 µM (inactive)	> 100 µM (inactive)	> 100 µM (inactive)	> 100 µM (inactive)	> 100 µM (inactive)	> 100 µM (inactive)	> 100 µM (inactive)	> 100 µM (inactive)	–
NC(=O)C1CCCNC1 (stereo unspecified)	> 100 µM (inactive)	> 100 µM (inactive)	> 100 µM (inactive)	> 100 µM (inactive)	24.3 µM (inactive)	> 100 µM (inactive)	> 100 µM (inactive)	> 100 µM (inactive)	> 100 µM (inactive)	> 100 µM (inactive)	> 100 µM (inactive)	> 100 µM (inactive)	> 100 µM (inactive)	> 100 µM (inactive)	> 100 µM (inactive)	> 100 µM (inactive)	> 100 µM (inactive)	> 100 µM (inactive)	> 100 µM (inactive)	–
Cc1nc(-c2ccccc2)c(C)n2c1nc1ccccc12	27.2 µM (inactive)	30.7 µM (inactive)	23.8 µM (inactive)	39.4 µM (inactive)	27.5 µM (inactive)	36.8 µM (inactive)	12.6 µM (inactive)	29.9 µM (inactive)	25.9 µM (inactive)	30.1 µM (inactive)	19.3 µM (inactive)	25.1 µM (inactive)	40 µM (inactive)	17.2 µM (inactive)	37.2 µM (inactive)	–	23.4 µM (inactive)	20.1 µM (inactive)	20.3 µM (inactive)	–
Cc1cc(C)nc(NC(=O)COc2ccc(Cl)cc2)c1	> 100 µM (inactive)	–	> 100 µM (inactive)	> 100 µM (inactive)	56.6 µM (inactive)	> 100 µM (inactive)	48.9 µM (inactive)	> 100 µM (inactive)	> 100 µM (inactive)	> 100 µM (inactive)	> 100 µM (inactive)	71.8 µM (inactive)	> 100 µM (inactive)	> 100 µM (inactive)	> 100 µM (inactive)	> 100 µM (inactive)	66.4 µM (inactive)	> 100 µM (inactive)	> 100 µM (inactive)	–
Cc1cc2c3c([nH]c2c2ccnc(C)c12)CCCC3	–	2.5 µM (inactive)	1.94 µM (inactive)	1.76 µM (inactive)	2.01 µM (inactive)	2.7 µM (inactive)	2.15 µM (inactive)	1.78 µM (inactive)	1.62 µM (inactive)	1.88 µM (inactive)	1.77 µM (inactive)	–	1.92 µM (inactive)	2.24 µM (inactive)	2.07 µM (inactive)	1.55 µM (inactive)	5.13 µM (inactive)	1.85 µM (inactive)	1.9 µM (inactive)	1.95 µM (inactive)
COc1ccc2c(c1O)-c1c(OC)c(OC)cc3c1[C@H](C2)[N+](C)(C)CC3	> 100 µM (inactive)	> 100 µM (inactive)	> 100 µM (inactive)	> 100 µM (inactive)	> 100 µM (inactive)	> 100 µM (inactive)	> 100 µM (inactive)	> 100 µM (inactive)	> 100 µM (inactive)	> 100 µM (inactive)	> 100 µM (inactive)	–	> 100 µM (inactive)	> 100 µM (inactive)	> 100 µM (inactive)	> 100 µM (inactive)	> 100 µM (inactive)	> 100 µM (inactive)	> 100 µM (inactive)	> 100 µM (inactive)
O=C(O)Cc1ccc(Nc2nc3cc(C(F)(F)F)ccc3nc2C(=O)O)cc1	> 100 µM (inactive)	–	> 100 µM (inactive)	> 100 µM (inactive)	> 100 µM (inactive)	> 100 µM (inactive)	> 100 µM (inactive)	> 100 µM (inactive)	> 100 µM (inactive)	> 100 µM (inactive)	> 100 µM (inactive)	> 100 µM (inactive)	> 100 µM (inactive)	> 100 µM (inactive)	> 100 µM (inactive)	> 100 µM (inactive)	> 100 µM (inactive)	> 100 µM (inactive)	> 100 µM (inactive)	–
COc1ccc2c(c1)N=C1CSC(c3cccc(Br)c3)N1C2 (stereo unspecified)	–	–	7.62 µM (inactive)	32.8 µM (inactive)	2.99 µM (inactive)	10.9 µM (inactive)	24 µM (inactive)	11.5 µM (inactive)	17.6 µM (inactive)	17.5 µM (inactive)	15.2 µM (inactive)	14.6 µM (inactive)	26.3 µM (inactive)	15.9 µM (inactive)	13.2 µM (inactive)	10.4 µM (inactive)	6.98 µM (inactive)	21.3 µM (inactive)	16.6 µM (inactive)	6.43 µM (inactive)
NS(=O)(=O)c1ccc(Nc2c3ccccc3nc3c(C(=O)NCCCN(CCO)CCO)cccc23)cc1	47.9 µM (inactive)	8.41 µM (inactive)	15.7 µM (inactive)	22.4 µM (inactive)	4.86 µM (inactive)	16.7 µM (inactive)	15.8 µM (inactive)	19.8 µM (inactive)	20.1 µM (inactive)	13.9 µM (inactive)	17.9 µM (inactive)	–	19.6 µM (inactive)	31.3 µM (inactive)	61.5 µM (inactive)	14.8 µM (inactive)	> 100 µM (inactive)	27.2 µM (inactive)	24.2 µM (inactive)	17.7 µM (inactive)
